Measured values from patent publication EP4238971A1, “SUBSTITUTED ISOXAZOLINE DERIVATIVES” (BASF SE, priority 2022, dated 2023).

Legend:
Type in all cases: in vivo
Myzus persicae = test: Green peach aphid (Myzus persicae), mixed life stages, systemic test via artificial diet under membrane; conditions: for mortality in comparison with untreated controls: 2500ppm, aphid mortality visually assessed after 3 days
Procedure: (§1) If not otherwise specified, the test solutions were prepared as follows: The active compound was dissolved at the desired concentration in a mixture of 1:1 (vol:vol) distilled water:acetone. The test solution was prepared at the day of use.
(§2) Test solutions were prepared in general at a concentration of 2500ppm (wt/vol).
B.2. Green peach aphid (Myzus persicae) (mixed life stages)
For evaluating control of Green Peach Aphid through systemic means the test unit consisted of 96-well-microtiter plates containing liquid artificial diet under an artificial membrane. The compounds were formulated using a solution containing 75% v/v water and 25% v/v DMSO. Different concentrations of formulated compounds were pipetted into the aphid diet, using a custom-built pipette, at two replications. After application, 5 - 8 adult aphids were placed on the artificial membrane inside the microtiter plate wells. The aphids were then allowed to suck on the treated aphid diet and incubated at about 23 ± 1°C and about 50 ± 5 % relative humidity for 3 days. Aphid mortality and fecundity was then visually assessed.

Heliothis virescens = test: Tobacco budworm (Heliothis virescens) control, insect diet in 96-well microtiter plates; conditions: for mortality in comparison with untreated controls: 2500ppm, egg and larval mortality visually assessed after 5 days
Procedure: as §1, §2
B.3. Tobacco budworm (Heliothis virescens)
For evaluating control of Tobacco Budworm, the test unit consisted of 96-well-microtiter plates containing an insect diet and 15-25 H. virescens eggs. The compounds were formulated using a solution containing 75% v/v water and 25% v/v DMSO. Different concentrations of formulated compounds were sprayed onto the insect diet at 10µl, using a custom-built micro atomizer, at two replications. After application, microtiter plates were incubated at about 28 ± 1°C and about 80 ± 5 % relative humidity for 5 days. Egg and larval mortality was then visually assessed.

Anthonomus grandis = test: Boll weevil (Anthonomus grandis) control, insect diet in 96-well microtiter plates; conditions: for mortality in comparison with untreated controls: 2500ppm, egg and larval mortality visually assessed after 5 days
Procedure: as §1, §2
B.1. Boll weevil (Anthonomus grandis)
For evaluating control of boll weevil, the test unit consisted of 96-well-microtiter plates containing an insect diet and 5-10 A. grandis eggs.
The compounds were formulated using a solution containing 75% v/v water and 25% v/v DMSO. Different concentrations of formulated compounds were sprayed onto the insect diet at 5µl, using a custom-built micro atomizer, at two replications.
After application, microtiter plates were incubated at about 25 ± 1°C and about 75 ± 5 % relative humidity for 5 days. Egg and larval mortality were then visually assessed.

Dichromothrips corbetti = test: Orchid thrips (Dichromothrips corbetti), floral-immersion technique; conditions: for mortality in comparison with untreated controls: 300ppm, adult thrips, mortality recorded 72 hours after treatment
Procedure: B.6. Orchid thrips (Dichromothrips corbetti)
Dichromothrips corbetti adults used for bioassay were obtained from a colony maintained continuously under laboratory conditions. For testing purposes, the test compound was diluted in a 1:1 mixture of acetone:water (vol:vol), plus Kinetic at a rate of 0.01% v/v.
Thrips potency of each compound was evaluated by using a floral-immersion technique. Each orchid petal was dipped into treatment solution and allowed to dry in Petri dishes. Treated petals were placed into individual re-sealable plastic along with about 20 adult thrips. All test arenas were held under dark condition and a temperature of about 28°C for duration of the assay. The percent mortality was recorded 72 hours after treatment.

Aedes aegypti = test: whole plant or invertebrate; conditions: larval mortality visually assessed after 2 days; for mortality in comparison with untreated controls: 2500ppm
Procedure: as §1, §2
B.4. Yellow fever mosquito (Aedes aegypti)
For evaluating control of Yellow Fever Mosquito, the test unit consisted of 96-well-microtiter plates containing 200µl of tap water per well and 5-15 freshly hatched A. aegypti larvae. The active compounds were formulated using a solution containing 75% (v/v) water and 25% (v/v) DMSO. Different concentrations of formulated compounds or mixtures were sprayed onto the insect diet at 2.5µl, using a custom-built micro atomizer, at two replications.
After application, microtiter plates were incubated at 28 ± 1°C, 80 ± 5 % RH for 2 days. Larval mortality was then visually assessed.

Spodoptera eridania = test: Southern armyworm (Spodoptera eridania), 2nd instar larvae, sprayed lima bean plants; conditions: for mortality in comparison with untreated controls: 300ppm, 2nd instar larvae, assessed 4 days after treatment
Procedure: B.7. Southern armyworm (Spodoptera eridania), 2nd instar larvae
The active compounds were formulated by a Tecan liquid handler in 100% cyclohexanone as a 10'000 ppm solution supplied in tubes. The 10'000 ppm solution was serially diluted in 100% cyclohexanone to make interim solutions. These served as stock solutions for which final dilutions were made by the Tecan in 50% acetone:50% water (v/v) into 10 or 20ml glass vials. A nonionic surfactant (Kinetic®) was included in the solution at a volume of 0.01% (v/v). The vials were then inserted into an automated electrostatic sprayer equipped with an atomizing nozzle for application to plants/insects. Lima bean plants (variety Sieva) were grown 2 plants to a pot and selected for treatment at the 1st true leaf stage. Test solutions were sprayed onto the foliage by an automated electrostatic plant sprayer equipped with an atomizing spray nozzle. The plants were dried in the sprayer fume hood and then removed from the sprayer. Each pot was placed into perforated plastic bags with a zip closure. Ten to 11 armyworm larvae were placed into the bag and the bags zipped closed. Test plants were maintained in a growth room at about 25°C and about 20-40% relative humidity for 4 days, avoiding direct exposure to fluorescent light (14:10 light:dark photo-period) to prevent trapping of heat inside the bags. Mortality and reduced feeding were assessed 4 days after treatment, compared to untreated control plants.

Plutella xylostella = test: Diamond back moth (Plutella xylostella), cabbage leaf disc dip test; conditions: for mortality in comparison with untreated controls: 300ppm, 3rd instar larvae, mortality recorded 72 hours after treatment
Procedure: B.5. Diamond back moth (Plutella xylostella)
The active compound was dissolved at the desired concentration in a mixture of 1:1 (vol:vol) distilled water: acetone. Surfactant (Kinetic) was added at a rate of 0.01% (vol/vol). The test solution was prepared at the day of use. Cabbage leaf discs (60mm in diameter) were dipped in test solution and air-dried. Treated leaves were placed in petri dishes lined with moistened filter paper and inoculated with ten 3rd instar larvae. Mortality was recorded 72 hours after treatment. Feeding damages were also recorded using a scale of 0-100%.

Bemisia argentifolii = test: Silverleaf whitefly (Bemisia argentifolii) adults, sprayed cotton plants; conditions: for mortality in comparison with untreated controls: 300 ppm, adults, assessed 3 days after treatment
Procedure: B.8. Silverleaf whitefly (Bemisia argentifolii) (adults)
The active compounds were formulated by a Tecan liquid handler in 100% cyclohexanone as a 10,000-ppm solution supplied in tubes. The 10,000-ppm solution was serially diluted in 100% cyclohexanone to make interim solutions. These served as stock solutions for which final dilutions were made by the Tecan in 50% acetone:50% water (v/v) into 5 or 10ml glass vials. A nonionic surfactant (Kinetic®) was included in the solution at a volume of 0.01% (v/v). The vials were then inserted into an automated electrostatic sprayer equipped with an atomizing nozzle for application to plants/insects. Cotton plants at the cotyledon stage (one plant per pot) were sprayed by an automated electrostatic plant sprayer equipped with an atomizing spray nozzle. The plants were dried in the sprayer fume hood and then removed from the sprayer. Each pot was placed into a plastic cup and about 10 to 12 whitefly adults (approximately 3-5 days old) were introduced. The insects were collected using an aspirator and a nontoxic Tygon® tubing connected to a barrier pipette tip. The tip, containing the collected insects, was then gently inserted into the soil containing the treated plant, allowing insects to crawl out of the tip to reach the foliage for feeding. Cups were covered with a reusable screened lid. Test plants were maintained in a growth room at about 25°C and about 20-40% relative humidity for 3 days, avoiding direct exposure to fluorescent light (14:10 light:dark photoperiod) to prevent trapping of heat inside the cup. Mortality was assessed 3 days after treatment, compared to untreated control plants.

Structure (SMILES) | mortality at 2500 ppm (Myzus persicae; Myzus persicae, 72 h, read-out: mortality in comparison with untreated controls) | mortality at 2500 ppm (Heliothis virescens; Heliothis virescens, 120 h, read-out: mortality in comparison with untreated controls) | mortality at 2500 ppm (Anthonomus grandis; Anthonomus grandis, 120 h, read-out: mortality in comparison with untreated controls) | mortality at 300 ppm (Dichromothrips corbetti; Dichromothrips corbetti, 72 h, read-out: mortality in comparison with untreated controls) | mortality at 2500 ppm (Aedes aegypti; Aedes aegypti, 48 h, read-out: mortality in comparison with untreated controls) | mortality at 300 ppm (Spodoptera eridania; Spodoptera eridania, 96 h, read-out: mortality in comparison with untreated controls) | mortality at 300 ppm (Plutella xylostella; Plutella xylostella, foliar, 72 h, read-out: mortality in comparison with untreated controls) | mortality at 300 ppm (Bemisia argentifolii; Bemisia argentifolii, 72 h, read-out: mortality in comparison with untreated controls) | mortality in comparison with untreated controls (Myzus persicae) | mortality in comparison with untreated controls (Heliothis virescens) | mortality in comparison with untreated controls (Anthonomus grandis) | mortality in comparison with untreated controls (Dichromothrips corbetti) | mortality in comparison with untreated controls (Aedes aegypti) | mortality in comparison with untreated controls (Spodoptera eridania) | mortality in comparison with untreated controls (Plutella xylostella) | mortality in comparison with untreated controls (Bemisia argentifolii)
Fc1c(Cl)cc(C2(C(F)(F)F)CC(Nc3ccc(Cl)c(-n4cc(C(F)(F)F)cn4)c3)=NO2)cc1Cl (stereo not drawn) [I-14, N-[4-chloro-3-[4-(trifluoromethyl)pyrazol-1-yl]phenyl]-5-(3,5-dichloro-4-fluoro-phenyl)-5-(trifluoromethyl)-4H-isoxazol-3-amine] | ≥ 75% | ≥ 75% | ≥ 75% | ≥ 75% | ≥ 75% | ≥ 75% | ≥ 75% | ≥ 75% |  |  |  |  |  |  |  | 
COCN(C1=NOC(c2cc(Cl)c(F)c(Cl)c2)(C(F)(F)F)C1)c1ccc(Cl)c(-n2cncn2)c1 (stereo not drawn) [I-21] |  |  |  |  |  |  |  |  | at least 75% | at least 75% | at least 75% | at least 75% | at least 75% | at least 75% | at least 75% | at least 75%
CCOC(=O)N(C1=NOC(c2cc(Cl)c(F)c(Cl)c2)(C(F)(F)F)C1)c1ccc(Cl)c(-n2cncn2)c1 (stereo not drawn) [I-25] |  |  |  |  |  |  |  |  |  | at least 75% |  | at least 75% | at least 75% | at least 75% | at least 75% | at least 75%
N#Cc1ccc(NC2=NOC(c3ccc(F)c(C(F)(F)F)c3)(C(F)(F)F)C2)cc1-n1cncn1 (stereo not drawn) [I-8] |  |  |  |  |  |  |  |  |  |  |  | at least 75% |  | at least 75% | at least 75% | at least 75%
N#Cc1ccc(NC2=NOC(c3cccc(C(F)(F)F)c3)(C(F)(F)F)C2)cc1-n1cncn1 (stereo not drawn) [I-5] |  |  |  |  |  |  |  |  | at least 75% | at least 75% | at least 75% | at least 75% | at least 75% | at least 75% | at least 75% | 
N#Cc1ccc(NC2=NOC(c3cc(Cl)cc(Cl)c3)(C(F)(F)F)C2)cc1-n1cncn1 (stereo not drawn) [I-1] |  |  |  |  |  |  |  |  | at least 75% | at least 75% | at least 75% | at least 75% | at least 75% | at least 75% | at least 75% | 
CN(C1=NOC(c2cc(Cl)cc(Cl)c2)(C(F)(F)F)C1)c1ccc(C#N)c(-n2cncn2)c1 (stereo not drawn) [I-7] |  |  |  |  |  |  |  |  | at least 75% | at least 75% | at least 75% | at least 75% | at least 75% | at least 75% | at least 75% | 
Fc1c(Cl)cc(C2(C(F)(F)F)CC(Nc3ccc(Cl)c(-n4ccc(C(F)(F)F)n4)c3)=NO2)cc1Cl (stereo not drawn) [I-15] |  |  |  |  |  |  |  |  |  | at least 75% |  | at least 75% | at least 75% | at least 75% |  | at least 75%
CCN(C1=NOC(c2cc(Cl)c(F)c(Cl)c2)(C(F)(F)F)C1)c1ccc(Cl)c(-n2cncn2)c1 (stereo not drawn) [I-19] |  |  |  |  |  |  |  |  | at least 75% | at least 75% | at least 75% | at least 75% | at least 75% | at least 75% | at least 75% | 
Fc1c(Cl)cc(C2(C(F)(F)F)CC(Nc3ccc(Cl)c(-n4cncn4)c3)=NO2)cc1Cl (stereo not drawn) [I-13] |  |  |  |  |  |  |  |  | at least 75% | at least 75% | at least 75% |  | at least 75% | at least 75% | at least 75% | at least 75%
